In US10723724B2, “Compounds for treating degenerative diseases of central nervous system or brain tumor, and uses thereof” (SUN YAT-SEN UNIVERSITY, priority 2016, dated 2020):

What was measured:
[1] = target: T1, PKN1 (PRK1) (Homo sapiens, UniProt Q16512); test: Kinase screening service: PKN1; assay type: biochemical; conditions: average of duplicates
T1 construct: purchased Life Technologies Corporation (Kinase Screening Service)
Protocol: (§1) The inhibitory effect of PT109 on other kinases including SGK and JNK was detected by the Kinase Screening Service of Life Technologies Corporation (The concentration of compound 9 was 10 μM, measurements were performed in duplicates, and the value was represented by an average) to investigate the selectivity of the compound for JNK and SGK1.

[2] = target: T2, CHUK (IKK alpha) (Homo sapiens, UniProt O15111); test: Kinase screening service: CHUK; assay type: biochemical; conditions: average of duplicates
T2 construct: purchased Life Technologies Corporation (Kinase Screening Service)
Protocol: as §1

[3] = target: T3, MAP3K5 (ASK1) (Homo sapiens, UniProt Q99683); test: Kinase screening service: MAP3K5; assay type: biochemical; conditions: average of duplicates
T3 construct: purchased Life Technologies Corporation (Kinase Screening Service)
Protocol: as §1

[4] = target: T4, MAP3K3 (MEKK3) (Homo sapiens, UniProt Q99759); test: Kinase screening service: MAP3K3; assay type: biochemical; conditions: average of duplicates
T4 construct: purchased Life Technologies Corporation (Kinase Screening Service)
Protocol: as §1

[5] = target: T5, TAOK2 (TAO1) (Homo sapiens, UniProt Q9UL54); test: Kinase screening service: TAOK2; assay type: biochemical; conditions: average of duplicates
T5 construct: purchased Life Technologies Corporation (Kinase Screening Service)
Protocol: as §1

[6] = target: T6, PI4KB (PI4K beta) (Homo sapiens, UniProt Q9UBF8); test: Kinase screening service: PI4KB; assay type: biochemical; conditions: average of duplicates
T6 construct: purchased Life Technologies Corporation (Kinase Screening Service)
Protocol: as §1

[7] = target: T7, PRKCA (PKC alpha) (Homo sapiens, UniProt P17252); test: Kinase screening service: PRKCA; assay type: biochemical; conditions: average of duplicates
T7 construct: purchased Life Technologies Corporation (Kinase Screening Service)
Protocol: as §1

[8] = target: T8, HCK (Homo sapiens, UniProt P08631); test: Kinase screening service: HCK; assay type: biochemical; conditions: average of duplicates
T8 construct: purchased Life Technologies Corporation (Kinase Screening Service)
Protocol: as §1

[9] = target: T9, MST1R (RON) (Homo sapiens, UniProt Q04912); test: Kinase screening service: MST1R; assay type: biochemical; conditions: average of duplicates
T9 construct: purchased Life Technologies Corporation (Kinase Screening Service)
Protocol: as §1

[10] = target: T10, ADRBK1 (GRK2) (Homo sapiens, UniProt P25098); test: Kinase screening service: ADRBK1; assay type: biochemical; conditions: average of duplicates
T10 construct: purchased Life Technologies Corporation (Kinase Screening Service)
Protocol: as §1

[11] = target: T11, GSK3B (GSK3 beta) (Homo sapiens, UniProt P49841); test: Kinase screening service: GSK3B; assay type: biochemical; conditions: average of duplicates
T11 construct: purchased Life Technologies Corporation (Kinase Screening Service)
Protocol: as §1

[12] = target: T12, CDK1/cyclin B (Homo sapiens, UniProt P06493); test: Kinase screening service: CDK1/cyclin B; assay type: biochemical; conditions: average of duplicates
T12 construct: purchased Life Technologies Corporation (Kinase Screening Service)
Protocol: as §1

[13] = target: T13, PTK2B (FAK2) (Homo sapiens, UniProt Q14289); test: Kinase screening service: PTK2B; assay type: biochemical; conditions: average of duplicates
T13 construct: purchased Life Technologies Corporation (Kinase Screening Service)
Protocol: as §1

[14] = target: T14, FGFR4 (Homo sapiens, UniProt P22455); test: Kinase screening service: FGFR4; assay type: biochemical; conditions: average of duplicates
T14 construct: purchased Life Technologies Corporation (Kinase Screening Service)
Protocol: as §1

[15] = target: T15, FGFR1 (Homo sapiens, UniProt P11362); test: Kinase screening service: FGFR1; assay type: biochemical; conditions: average of duplicates
T15 construct: purchased Life Technologies Corporation (Kinase Screening Service)
Protocol: as §1

[16] = target: T16, AKT1 (PKB alpha) (Homo sapiens, UniProt P31749); test: Kinase screening service: AKT1; assay type: biochemical; conditions: average of duplicates
T16 construct: purchased Life Technologies Corporation (Kinase Screening Service)
Protocol: as §1

[17] = target: T17, MAPK1 (ERK2) (Homo sapiens, UniProt P28482); test: Kinase screening service: MAPK1; assay type: biochemical; conditions: average of duplicates
T17 construct: purchased Life Technologies Corporation (Kinase Screening Service)
Protocol: as §1

[18] = target: T18, CSNK1G2 (CK1 gamma 2) (Homo sapiens, UniProt P78368); test: Kinase screening service: CSNK1G2; assay type: biochemical; conditions: average of duplicates
T18 construct: purchased Life Technologies Corporation (Kinase Screening Service)
Protocol: as §1

[19] = target: T19, PLK4 (Homo sapiens, UniProt O00444); test: Kinase screening service: PLK4; assay type: biochemical; conditions: average of duplicates
T19 construct: purchased Life Technologies Corporation (Kinase Screening Service)
Protocol: as §1

[20] = target: T20, NEK7 (Homo sapiens, UniProt Q8TDX7); test: Kinase screening service: NEK7; assay type: biochemical; conditions: average of duplicates
T20 construct: purchased Life Technologies Corporation (Kinase Screening Service)
Protocol: as §1

[21] = target: T21, TYRO3 (RSE) (Homo sapiens, UniProt Q06418); test: Kinase screening service: TYRO3; assay type: biochemical; conditions: average of duplicates
T21 construct: purchased Life Technologies Corporation (Kinase Screening Service)
Protocol: as §1

[22] = target: T22, CSNK1D (CK1 delta) (Homo sapiens, UniProt P48730); test: Kinase screening service: CSNK1D; assay type: biochemical; conditions: average of duplicates
T22 construct: purchased Life Technologies Corporation (Kinase Screening Service)
Protocol: as §1

[23] = target: T23, PAK6 (Homo sapiens, UniProt Q9NQU5); test: Kinase screening service: PAK6; assay type: biochemical; conditions: average of duplicates
T23 construct: purchased Life Technologies Corporation (Kinase Screening Service)
Protocol: as §1

[24] = target: T24, GSK3A (GSK3 alpha) (Homo sapiens, UniProt P49840); test: Kinase screening service: GSK3A; assay type: biochemical; conditions: average of duplicates
T24 construct: purchased Life Technologies Corporation (Kinase Screening Service)
Protocol: as §1

[25] = target: T25, ULK1 (Homo sapiens, UniProt O75385); test: Kinase screening service: ULK1; assay type: biochemical; conditions: average of duplicates
T25 construct: purchased Life Technologies Corporation (Kinase Screening Service)
Protocol: as §1

[26] = target: T26, SGK2 (Homo sapiens, UniProt Q9HBY8); test: Kinase screening service (Life Technologies): SGK2; assay type: biochemical
T26 construct: purchased Life Technologies Corporation (kinase screening service)
Excerpt: The inhibitory effect of PT109 on SGK and INK was detected by the kinase screening commercialization service of Life Technologies Corporation.

[27] = target: T27, TLK1 (Homo sapiens, UniProt Q9UKI8); test: Kinase screening service: TLK1; assay type: biochemical; conditions: average of duplicates
T27 construct: purchased Life Technologies Corporation (Kinase Screening Service)
Protocol: as §1

[28] = tested on: HT-22 cells; test: Effect on ROS (DHE staining) in HT-22 cells; assay type: cell-based; conditions: PT109 at 10 μM, 2 mM glutamine 10 h
Protocol: DHE staining was adopted to detect the formation of oxygen free radicals. The HT-22 cells were cultured in DMEM+10% fetal bovine serum and placed in a 5% CO2 incubator at 37° C. The cells were seeded in a poly-lysine-coated 24-well plate at a suitable density. After cell adherence, the PT109 separately prepared in the medium was added to the corresponding wells. Upon treatment for 30 min, 2 mM glutamine was added and treated for 10 h. The cells were harvested, and incubated with DHE dye for about 30 min. DHE dye was washed, and the fluorescence intensity of DHE was detected by a high-content system.

[29] = target: T28, PHKG1 (Homo sapiens, UniProt Q16816); test: Kinase screening service: PHKG1; assay type: biochemical; conditions: average of duplicates
T28 construct: purchased Life Technologies Corporation (Kinase Screening Service)
Protocol: as §1

[30] = target: T29, CSNK1A1 (CK1 alpha 1) (Homo sapiens, UniProt P48729); test: Kinase screening service: CSNK1A1; assay type: biochemical; conditions: average of duplicates
T29 construct: purchased Life Technologies Corporation (Kinase Screening Service)
Protocol: as §1

[31] = target: T30, CDK5/p25 (Homo sapiens, UniProt Q00535); test: Kinase screening service: CDK5/p25; assay type: biochemical; conditions: average of duplicates
T30 construct: purchased Life Technologies Corporation (Kinase Screening Service)
Protocol: as §1

[32] = target: T31, PRKCI (PKC iota) (Homo sapiens, UniProt P41743); test: Kinase screening service: PRKCI; assay type: biochemical; conditions: average of duplicates
T31 construct: purchased Life Technologies Corporation (Kinase Screening Service)
Protocol: as §1

[33] = target: T32, NEK4 (Homo sapiens, UniProt P51957); test: Kinase screening service: NEK4; assay type: biochemical; conditions: average of duplicates
T32 construct: purchased Life Technologies Corporation (Kinase Screening Service)
Protocol: as §1

[34] = target: T33, MAP3K7/MAP3K7IP1 (TAK1-TAB1) (Homo sapiens, UniProt O43318); test: Kinase screening service: MAP3K7/MAP3K7IP1; assay type: biochemical; conditions: average of duplicates
T33 construct: purchased Life Technologies Corporation (Kinase Screening Service)
Protocol: as §1

[35] = target: T34, DYRK1A (Homo sapiens, UniProt Q13627); test: Kinase screening service: DYRK1A; assay type: biochemical; conditions: average of duplicates
T34 construct: purchased Life Technologies Corporation (Kinase Screening Service)
Protocol: as §1

T2 sequence (O15111 whole entry): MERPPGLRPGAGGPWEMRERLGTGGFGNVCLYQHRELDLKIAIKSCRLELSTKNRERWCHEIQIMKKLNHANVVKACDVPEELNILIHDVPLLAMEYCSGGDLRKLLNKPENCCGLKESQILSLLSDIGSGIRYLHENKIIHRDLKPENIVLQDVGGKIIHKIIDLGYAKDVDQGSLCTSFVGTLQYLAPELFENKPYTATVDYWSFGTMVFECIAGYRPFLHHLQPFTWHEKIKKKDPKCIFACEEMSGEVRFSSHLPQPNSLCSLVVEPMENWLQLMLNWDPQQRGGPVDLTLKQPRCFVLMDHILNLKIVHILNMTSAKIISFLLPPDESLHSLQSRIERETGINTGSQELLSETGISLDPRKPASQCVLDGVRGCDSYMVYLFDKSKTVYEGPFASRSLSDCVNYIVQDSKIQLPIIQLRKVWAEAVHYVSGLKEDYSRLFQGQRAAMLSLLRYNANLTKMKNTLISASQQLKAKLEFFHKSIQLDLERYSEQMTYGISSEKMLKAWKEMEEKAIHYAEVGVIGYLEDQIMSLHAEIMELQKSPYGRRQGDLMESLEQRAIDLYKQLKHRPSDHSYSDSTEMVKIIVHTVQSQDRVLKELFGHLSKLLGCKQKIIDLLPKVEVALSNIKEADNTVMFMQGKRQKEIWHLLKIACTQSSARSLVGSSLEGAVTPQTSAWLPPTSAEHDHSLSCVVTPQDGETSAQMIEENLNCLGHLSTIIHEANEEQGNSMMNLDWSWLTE
T29 sequence (P48729 whole entry): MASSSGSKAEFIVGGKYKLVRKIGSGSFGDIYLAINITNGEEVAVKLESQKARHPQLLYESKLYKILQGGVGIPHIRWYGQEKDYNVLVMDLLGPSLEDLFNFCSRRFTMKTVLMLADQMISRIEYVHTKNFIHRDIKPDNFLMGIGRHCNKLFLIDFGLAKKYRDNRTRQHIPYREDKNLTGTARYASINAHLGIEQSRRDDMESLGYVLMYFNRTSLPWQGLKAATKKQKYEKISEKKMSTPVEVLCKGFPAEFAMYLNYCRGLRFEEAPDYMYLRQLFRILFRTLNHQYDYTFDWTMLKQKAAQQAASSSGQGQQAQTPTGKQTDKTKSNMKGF
T13 sequence (Q14289 whole entry): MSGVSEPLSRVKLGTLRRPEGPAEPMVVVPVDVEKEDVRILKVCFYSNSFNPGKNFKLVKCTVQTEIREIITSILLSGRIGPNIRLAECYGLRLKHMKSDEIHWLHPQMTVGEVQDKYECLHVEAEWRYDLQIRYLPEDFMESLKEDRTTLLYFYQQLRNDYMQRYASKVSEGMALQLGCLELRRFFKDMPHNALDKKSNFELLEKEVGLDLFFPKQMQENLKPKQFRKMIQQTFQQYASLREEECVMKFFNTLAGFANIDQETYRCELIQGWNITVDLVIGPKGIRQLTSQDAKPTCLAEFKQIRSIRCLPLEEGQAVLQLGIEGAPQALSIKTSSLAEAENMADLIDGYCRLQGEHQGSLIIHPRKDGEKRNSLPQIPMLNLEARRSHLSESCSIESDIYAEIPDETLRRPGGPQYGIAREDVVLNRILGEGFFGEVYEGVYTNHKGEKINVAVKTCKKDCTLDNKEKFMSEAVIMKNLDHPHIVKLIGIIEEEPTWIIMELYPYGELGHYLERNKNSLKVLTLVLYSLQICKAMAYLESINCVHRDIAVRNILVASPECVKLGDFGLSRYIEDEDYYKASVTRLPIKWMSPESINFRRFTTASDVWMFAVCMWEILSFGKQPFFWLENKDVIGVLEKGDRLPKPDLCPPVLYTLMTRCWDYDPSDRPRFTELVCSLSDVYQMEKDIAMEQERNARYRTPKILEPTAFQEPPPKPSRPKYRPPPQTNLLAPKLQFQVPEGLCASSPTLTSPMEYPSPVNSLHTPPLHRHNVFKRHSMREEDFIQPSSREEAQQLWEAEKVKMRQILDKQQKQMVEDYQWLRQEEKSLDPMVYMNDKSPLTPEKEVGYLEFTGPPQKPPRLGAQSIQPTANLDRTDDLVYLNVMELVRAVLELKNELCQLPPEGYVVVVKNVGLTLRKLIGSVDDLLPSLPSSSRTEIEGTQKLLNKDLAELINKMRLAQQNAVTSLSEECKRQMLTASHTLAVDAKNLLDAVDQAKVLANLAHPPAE
T25 sequence (O75385 whole entry): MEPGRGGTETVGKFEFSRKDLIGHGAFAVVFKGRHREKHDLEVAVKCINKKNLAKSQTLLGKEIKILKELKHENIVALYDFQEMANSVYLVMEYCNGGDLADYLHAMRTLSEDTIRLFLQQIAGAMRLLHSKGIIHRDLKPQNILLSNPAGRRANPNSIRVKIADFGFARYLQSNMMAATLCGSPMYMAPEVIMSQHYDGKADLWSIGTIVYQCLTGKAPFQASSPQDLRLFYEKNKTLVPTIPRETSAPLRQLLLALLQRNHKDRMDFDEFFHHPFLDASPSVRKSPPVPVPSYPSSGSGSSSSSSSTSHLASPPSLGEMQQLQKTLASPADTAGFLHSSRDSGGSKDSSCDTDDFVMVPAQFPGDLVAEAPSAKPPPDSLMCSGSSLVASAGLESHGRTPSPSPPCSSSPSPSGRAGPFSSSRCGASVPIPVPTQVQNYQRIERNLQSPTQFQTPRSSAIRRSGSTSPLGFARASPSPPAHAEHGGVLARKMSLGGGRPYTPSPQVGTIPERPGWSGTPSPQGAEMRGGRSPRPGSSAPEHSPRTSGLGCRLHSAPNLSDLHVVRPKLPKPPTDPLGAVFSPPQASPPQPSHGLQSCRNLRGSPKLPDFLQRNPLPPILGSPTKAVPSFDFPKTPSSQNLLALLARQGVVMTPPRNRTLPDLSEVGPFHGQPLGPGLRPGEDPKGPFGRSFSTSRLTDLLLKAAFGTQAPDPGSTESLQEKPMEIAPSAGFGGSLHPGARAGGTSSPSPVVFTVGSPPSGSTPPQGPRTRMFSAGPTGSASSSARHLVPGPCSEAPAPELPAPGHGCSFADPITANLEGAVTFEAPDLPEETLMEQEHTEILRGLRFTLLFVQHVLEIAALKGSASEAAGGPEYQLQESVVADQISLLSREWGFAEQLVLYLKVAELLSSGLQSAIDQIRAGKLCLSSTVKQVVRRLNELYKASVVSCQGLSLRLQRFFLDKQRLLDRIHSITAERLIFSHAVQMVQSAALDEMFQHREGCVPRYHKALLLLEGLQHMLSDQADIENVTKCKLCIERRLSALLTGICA
T11 sequence (P49841 whole entry): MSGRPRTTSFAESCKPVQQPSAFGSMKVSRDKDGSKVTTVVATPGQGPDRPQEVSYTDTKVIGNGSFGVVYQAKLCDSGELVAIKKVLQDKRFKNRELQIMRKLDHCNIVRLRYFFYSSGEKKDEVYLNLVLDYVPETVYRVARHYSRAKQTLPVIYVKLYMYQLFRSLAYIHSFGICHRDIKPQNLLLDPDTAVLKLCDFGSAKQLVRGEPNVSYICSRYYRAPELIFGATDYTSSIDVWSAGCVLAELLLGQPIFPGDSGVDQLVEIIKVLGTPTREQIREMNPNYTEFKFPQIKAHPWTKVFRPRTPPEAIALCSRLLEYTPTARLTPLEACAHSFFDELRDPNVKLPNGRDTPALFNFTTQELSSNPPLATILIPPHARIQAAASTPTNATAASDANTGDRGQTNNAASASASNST
T33 sequence (O43318 with tags, fused parts or gaps limits assumed): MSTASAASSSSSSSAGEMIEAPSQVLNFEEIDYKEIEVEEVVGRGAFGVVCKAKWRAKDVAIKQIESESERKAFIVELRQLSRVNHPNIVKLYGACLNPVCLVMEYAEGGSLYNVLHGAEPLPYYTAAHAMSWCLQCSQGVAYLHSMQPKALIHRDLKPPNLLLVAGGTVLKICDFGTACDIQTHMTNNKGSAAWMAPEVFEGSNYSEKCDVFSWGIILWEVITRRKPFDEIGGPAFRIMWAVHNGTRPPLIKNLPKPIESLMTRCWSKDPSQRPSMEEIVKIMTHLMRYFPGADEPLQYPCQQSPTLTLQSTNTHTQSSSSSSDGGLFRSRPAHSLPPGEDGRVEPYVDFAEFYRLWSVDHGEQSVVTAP
T22 sequence (P48730 whole entry): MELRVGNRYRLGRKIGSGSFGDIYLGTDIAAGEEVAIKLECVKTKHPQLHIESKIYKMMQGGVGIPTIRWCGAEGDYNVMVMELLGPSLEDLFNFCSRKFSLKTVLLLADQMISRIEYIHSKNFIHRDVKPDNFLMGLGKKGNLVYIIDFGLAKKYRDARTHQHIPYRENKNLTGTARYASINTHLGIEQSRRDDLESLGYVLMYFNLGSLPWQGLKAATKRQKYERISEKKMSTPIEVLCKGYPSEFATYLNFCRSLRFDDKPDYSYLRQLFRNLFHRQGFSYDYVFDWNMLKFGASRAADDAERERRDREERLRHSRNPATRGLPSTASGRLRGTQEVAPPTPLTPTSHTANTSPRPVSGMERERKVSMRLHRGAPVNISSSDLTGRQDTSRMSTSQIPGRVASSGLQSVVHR

O=C(CCCCC1CCSS1)NC1CCC(Nc2cccc3cnccc23)CC1 (centres unmarked) [PT109, 5-(1,2-dithiolan-3-yl)-N-(4-(isoquinolin-5-ylamino)cyclohexyl) pentanamide]
inhibition at 10 µM [1]: 16% | inhibition at 10 µM [2]: 16% | inhibition at 10 µM [3]: 9% | inhibition at 10 µM [4]: 3% | inhibition at 10 µM [5]: -6% | inhibition at 10 µM [6]: 39% | inhibition at 10 µM [7]: 25% | inhibition at 10 µM [8]: 9% | inhibition at 10 µM [9]: 35% | inhibition at 10 µM [10]: 6% | inhibition at 10 µM [11]: 61% | inhibition at 10 µM [12]: 14% | inhibition at 10 µM [13]: 8% | inhibition at 10 µM [14]: -2% | inhibition at 10 µM [15]: -3% | inhibition at 10 µM [16]: 22% | inhibition at 10 µM [17]: 4% | inhibition at 10 µM [18]: 15% | inhibition at 10 µM [19]: 35% | inhibition at 10 µM [20]: 2% | inhibition at 10 µM [21]: 12% | inhibition at 10 µM [22]: 6% | inhibition at 10 µM [23]: -16% | inhibition at 10 µM [24]: 41% | inhibition at 10 µM [25]: 26% | IC50 [26]: 5.6 µM | inhibition at 10 µM [27]: 20% | glutamine-induced ROS elevation (DHE fluorescence) [28]: significantly reduced | inhibition at 10 µM [29]: 10% | inhibition at 10 µM [30]: 3% | inhibition at 10 µM [31]: 18% | inhibition at 10 µM [32]: -14% | inhibition at 10 µM [33]: 3% | inhibition at 10 µM [34]: 39% | inhibition at 10 µM [35]: 16%
